The text below walks through data of patent US6858650B1, “Stable salts of novel derivatives of 3,3-diphenylpropylamines” (Schwarz Pharma AG, priority 1999, dated 2005).

Data set [1] can be described thus: Stability of the solid salt / on storage. It is filed as physicochemical.
A short description of data set [2]: Hygroscopicity of the solid salt. The class given is physicochemical.

`CC(C)C(=O)Oc1ccc(CO)cc1C(CCN(C(C)C)C(C)C)c1ccccc1.Cl` (stereo not drawn) [2b, R-(+)-2-(3-diisopropylamino-1-phenylpropyl)-4-hydroxymethylphenyl-isobutyrate ester hydrochloride hydrate]: the stability result in data set [1] (hydrate-containing product from humid solvent with at least one mole equivalent of water) is “stable”. Besides, the hygroscopicity entry in data set [2] (anhydrous product crystallised from isobutyrate chloride solution) is on record as “very hygroscopic”.
Take `CC(C)C(=O)Oc1ccc(CO)cc1C(CCN(C(C)C)C(C)C)c1ccccc1.O=C(O)/C=C/C(=O)O` (stereo not drawn) [2a, R-(+)-2-(3-diisopropylamino-1-phenylpropyl)-4-hydroxymethylphenyl-isobutyrate ester hydrogen fumarate]: the stability result in data set [1] (crystalline hydrogen fumarate salt, at RT) is reported as “stable at RT”. The hygroscopicity entry in data set [2] (crystalline hydrogen fumarate salt) was “non-hygroscopic”.
